Experimental data as given in PubChem BioAssay (NCI).
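Cultured in 96-well plates, cells were exposed to test compound for 48 hours across five concentrations. GI50 = concentration required for 50% inhibition of growth. TGI marks complete inhibition of growth.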

What was measured:
Assay in all cases: growth of human tumour cells (NCI), 48 h
SR leukemia = test system: SR leukemia
NCI-H522 lung = test system: NCI-H522 lung
KM12 colon = test system: KM12 colon
HOP-92 NSCLC = test system: HOP-92 NSCLC
T-47D breast = test system: T-47D breast
UO-31 renal = test system: UO-31 renal
HCC-2998 colon = test system: HCC-2998 colon
COLO 205 colon = test system: COLO 205 colon
SK-MEL-2 melanoma = test system: SK-MEL-2 melanoma
A498 renal = test system: A498 renal
HT29 colon = test system: HT29 colon
HS 578T breast = test system: HS 578T breast
HCT-116 colon = test system: HCT-116 colon
CAKI-1 renal = test system: CAKI-1 renal
UACC-257 melanoma = test system: UACC-257 melanoma
UACC-62 melanoma = test system: UACC-62 melanoma
PC-3 prostate = test system: PC-3 prostate
OVCAR-8 ovarian = test system: OVCAR-8 ovarian
MDA-MB-435 = test system: MDA-MB-435
NCI-H226 lung = test system: NCI-H226 lung
HOP-62 NSCLC = test system: HOP-62 NSCLC
OVCAR-3 ovarian = test system: OVCAR-3 ovarian
NCI-H460 lung = test system: NCI-H460 lung
K-562 leukemia = test system: K-562 leukemia
HCT-15 colon = test system: HCT-15 colon
OVCAR-4 ovarian = test system: OVCAR-4 ovarian
A549 NSCLC = test system: A549 NSCLC
RXF 393 renal = test system: RXF 393 renal
SK-MEL-28 melanoma = test system: SK-MEL-28 melanoma
RPMI-8226 leukemia = test system: RPMI-8226 leukemia
U251 CNS = test system: U251 CNS
MDA-MB-231 breast = test system: MDA-MB-231 breast
LOX IMVI melanoma = test system: LOX IMVI melanoma
SNB-75 CNS = test system: SNB-75 CNS
DU-145 prostate = test system: DU-145 prostate
TK-10 renal = test system: TK-10 renal
ACHN renal = test system: ACHN renal
SF-295 CNS = test system: SF-295 CNS
NCI/ADR-RES ovarian = test system: NCI/ADR-RES ovarian
HL-60(TB) leukemia = test system: HL-60(TB) leukemia
SF-539 CNS = test system: SF-539 CNS
M14 melanoma = test system: M14 melanoma
MALME-3M melanoma = test system: MALME-3M melanoma
MCF7 breast = test system: MCF7 breast
SF-268 CNS = test system: SF-268 CNS
SK-MEL-5 melanoma = test system: SK-MEL-5 melanoma
NCI-H23 lung = test system: NCI-H23 lung
MOLT-4 leukemia = test system: MOLT-4 leukemia
OVCAR-5 ovarian = test system: OVCAR-5 ovarian
EKVX NSCLC = test system: EKVX NSCLC
SW-620 colon = test system: SW-620 colon
BT-549 breast = test system: BT-549 breast
IGROV1 ovarian = test system: IGROV1 ovarian
SK-OV-3 ovarian = test system: SK-OV-3 ovarian
SN12C renal = test system: SN12C renal

COc1ccc(S(=O)(=O)Nc2cc(Sc3cccc4cccnc34)c(O)c3ccccc23)cc1
GI50 (SR leukemia): 358 nM
TGI (SR leukemia): > 100000 nM
GI50 (NCI-H522 lung): 1360 nM
TGI (NCI-H522 lung): 3740 nM
GI50 (KM12 colon): 1640 nM
TGI (KM12 colon): 15000 nM
GI50 (HOP-92 NSCLC): 1550 nM
TGI (HOP-92 NSCLC): 5930 nM
GI50 (T-47D breast): 1730 nM
TGI (T-47D breast): 5640 nM
GI50 (UO-31 renal): 926 nM
TGI (UO-31 renal): 8610 nM
GI50 (HCC-2998 colon): 6700 nM
TGI (HCC-2998 colon): 21300 nM
GI50 (COLO 205 colon): 1660 nM
TGI (COLO 205 colon): 4120 nM
GI50 (SK-MEL-2 melanoma): 1370 nM
TGI (SK-MEL-2 melanoma): 6260 nM
GI50 (A498 renal): 2270 nM
TGI (A498 renal): 16500 nM
GI50 (HT29 colon): 823 nM
TGI (HT29 colon): 10400 nM
GI50 (HS 578T breast): 3090 nM
TGI (HS 578T breast): 28900 nM
GI50 (HCT-116 colon): 505 nM
TGI (HCT-116 colon): 2350 nM
GI50 (CAKI-1 renal): 2530 nM
TGI (CAKI-1 renal): 10500 nM
GI50 (UACC-257 melanoma): 1850 nM
TGI (UACC-257 melanoma): 6040 nM
GI50 (UACC-62 melanoma): 2040 nM
TGI (UACC-62 melanoma): 6830 nM
GI50 (PC-3 prostate): 512 nM
TGI (PC-3 prostate): 10600 nM
GI50 (OVCAR-8 ovarian): 595 nM
TGI (OVCAR-8 ovarian): 18800 nM
GI50 (MDA-MB-435): 2200 nM
TGI (MDA-MB-435): 13200 nM
GI50 (NCI-H226 lung): 2280 nM
TGI (NCI-H226 lung): 19900 nM
GI50 (HOP-62 NSCLC): 1710 nM
TGI (HOP-62 NSCLC): 21700 nM
GI50 (OVCAR-3 ovarian): 695 nM
TGI (OVCAR-3 ovarian): 3810 nM
GI50 (NCI-H460 lung): 466 nM
TGI (NCI-H460 lung): 10500 nM
GI50 (K-562 leukemia): 926 nM
TGI (K-562 leukemia): 11200 nM
GI50 (HCT-15 colon): 477 nM
TGI (HCT-15 colon): 8230 nM
GI50 (OVCAR-4 ovarian): 609 nM
TGI (OVCAR-4 ovarian): 1930 nM
GI50 (A549 NSCLC): 587 nM
TGI (A549 NSCLC): 12800 nM
GI50 (RXF 393 renal): 1240 nM
TGI (RXF 393 renal): 6330 nM
GI50 (SK-MEL-28 melanoma): 2550 nM
TGI (SK-MEL-28 melanoma): 13200 nM
GI50 (RPMI-8226 leukemia): 2470 nM
TGI (RPMI-8226 leukemia): 8920 nM
GI50 (U251 CNS): 579 nM
TGI (U251 CNS): 11900 nM
GI50 (MDA-MB-231 breast): 992 nM
TGI (MDA-MB-231 breast): 12500 nM
GI50 (LOX IMVI melanoma): 372 nM
GI50 (SNB-75 CNS): 3410 nM
TGI (SNB-75 CNS): 13500 nM
GI50 (DU-145 prostate): 738 nM
TGI (DU-145 prostate): 2650 nM
GI50 (TK-10 renal): 2820 nM
TGI (TK-10 renal): 13700 nM
GI50 (ACHN renal): 731 nM
TGI (ACHN renal): 10000 nM
GI50 (SF-295 CNS): 2230 nM
TGI (SF-295 CNS): 13300 nM
GI50 (NCI/ADR-RES ovarian): 707 nM
TGI (NCI/ADR-RES ovarian): 12200 nM
GI50 (HL-60(TB) leukemia): 1180 nM
TGI (HL-60(TB) leukemia): 4940 nM
GI50 (SF-539 CNS): 1490 nM
TGI (SF-539 CNS): 6520 nM
GI50 (M14 melanoma): 1300 nM
TGI (M14 melanoma): 12100 nM
GI50 (MALME-3M melanoma): 2880 nM
TGI (MALME-3M melanoma): 11500 nM
GI50 (MCF7 breast): 420 nM
TGI (MCF7 breast): 2770 nM
GI50 (SF-268 CNS): 1550 nM
TGI (SF-268 CNS): 9810 nM
GI50 (SK-MEL-5 melanoma): 1330 nM
TGI (SK-MEL-5 melanoma): 2850 nM
GI50 (NCI-H23 lung): 1460 nM
TGI (NCI-H23 lung): 10800 nM
GI50 (MOLT-4 leukemia): 563 nM
TGI (MOLT-4 leukemia): 8080 nM
GI50 (OVCAR-5 ovarian): 2830 nM
TGI (OVCAR-5 ovarian): 12700 nM
GI50 (EKVX NSCLC): 1440 nM
TGI (EKVX NSCLC): 10900 nM
GI50 (SW-620 colon): 815 nM
TGI (SW-620 colon): 3620 nM
GI50 (BT-549 breast): 2650 nM
TGI (BT-549 breast): 16900 nM
GI50 (IGROV1 ovarian): 1090 nM
TGI (IGROV1 ovarian): 7200 nM
GI50 (SK-OV-3 ovarian): 3590 nM
TGI (SK-OV-3 ovarian): 14400 nM
GI50 (SN12C renal): 1060 nM
TGI (SN12C renal): 4990 nM
